Experimental data reported in patent publication EP0377642B1, “HERBICIDES FOR WEED CONTROL IN RICE” (E.I. DU PONT DE NEMOURS AND COMPANY, priority 1987, dated 1989).

Experiments:
Format in all cases: in vivo
[1] = tested on: transplanted rice (var. Nihonbare); assay: Crop tolerance of transplanted rice, combinations with Thiobencarb, Dimepiperate, Esprocarb and Dymron (Table 15); details: 2100 GAI/HA; 15 days after application
Text: (§1) Methyl 2-[[[[(4-methoxy-6-methyl-1,3,5-triazin-2-yl)amino]carbonyl]amino]sulfonyl]benzoate (Compound 1) and mixtures thereof with other compounds were applied as a spray (using a hand sprayer) to rice (either transplanted or direct seeded) in several rice growing areas in Southeast Asia and in the U.S. Tables 1-28 contain the results of these tests and clearly exemplify the utility of this invention. The details of each application are included in the appropriate table. [drawing 2]

WEED [2] = assay: Effects in combination with Bensulfuron Methyl and Thiobencarb or Pretilachlor on weed control (Table 25); details: scale 0 to 10, treated at 2.0 leaf stage, evaluated four weeks later; for WEED CONTROL RATINGS CD: Cyperus difformis; for WEED CONTROL RATINGS CS: Cyperus serotinus; for WEED CONTROL RATINGS EO: Echinochloa oryzicola; for WEED CONTROL RATINGS BL: Lindernia pyxidaria; for WEED CONTROL RATINGS MV: Monochoria vaginalis; for WEED CONTROL RATINGS SP: Sagittaria pygmaea; for WEED CONTROL RATINGS SJ: Scirpus juncoides
Text: as §1

WEED [3] = assay: Effects in combination with Bensulfuron Methyl and Thiobencarb or Pretilachlor on weed control (Table 24); details: scale 0 to 10, treated at 1.0 leaf stage, evaluated four weeks later; for WEED CONTROL RATINGS CD: Cyperus difformis; for WEED CONTROL RATINGS CS: Cyperus serotinus; for WEED CONTROL RATINGS EO: Echinochloa oryzicola; for WEED CONTROL RATINGS BL: Lindernia pyxidaria; for WEED CONTROL RATINGS MV: Monochoria vaginalis; for WEED CONTROL RATINGS SP: Sagittaria pygmaea; for WEED CONTROL RATINGS SJ: Scirpus juncoides
Text: as §1

rice [4] = assay: Effects in combination with Bensulfuron Methyl and Thiobencarb or Pretilachlor on rice growth (Table 23); details: var. Koshihikari, applied 7 days after transplanting, rated 21 days after application
Text: as §1

rice [5] = assay: Effects in combination with Thiobencarb and Bensulfuron Methyl on rice growth (Table 22); details: rate 2100 g ai/ha; var. Koshihikari, applied 7 days after transplanting, rated 21 days after application
Text: as §1

SMILES: Cc1ccc(NC(=O)NC(C)(C)c2ccccc2)cc1 [Dymron, 1-(α,α-dimethylbenzyl)-3-p-tolylurea]
- CROP TOLERANCE (Nihonbare) DW, dry weight relative to untreated check [1]: 107%
- CROP TOLERANCE (Nihonbare) PH, plant height relative to untreated check [1]: 102%
- CROP TOLERANCE (Nihonbare) VA, visual crop injury [1]: 0%

SMILES: CCN(C(=O)SCc1ccccc1)C(C)C(C)C (stereo not shown) [Esprocarb, S-benzyl-N-ethyl-N-(1,2-dimethyl)-propylthiol carbamate]
- CROP TOLERANCE (Nihonbare) DW, dry weight relative to untreated check [1]: 94%
- CROP TOLERANCE (Nihonbare) PH, plant height relative to untreated check [1]: 92%
- CROP TOLERANCE (Nihonbare) VA, visual crop injury [1]: 0%

SMILES: CCCOCCN(C(=O)CCl)c1c(CC)cccc1CC [PRETILACHLOR]
- WEED CONTROL RATINGS CD (WEED [2]; rate 600 g ai/ha): 10
- WEED CONTROL RATINGS CS (WEED [2]; rate 600 g ai/ha): 3
- WEED CONTROL RATINGS EO (WEED [2]; rate 600 g ai/ha): 7
- WEED CONTROL RATINGS BL (WEED [2]; rate 600 g ai/ha): 7
- WEED CONTROL RATINGS MV (WEED [2]; rate 600 g ai/ha): 3
- WEED CONTROL RATINGS SP (WEED [2]; rate 600 g ai/ha): 6
- WEED CONTROL RATINGS SJ (WEED [2]; rate 600 g ai/ha): 2
- WEED CONTROL RATINGS CD (WEED [3]; rate 600 g ai/ha): 10
- WEED CONTROL RATINGS CS (WEED [3]; rate 600 g ai/ha): 3
- WEED CONTROL RATINGS EO (WEED [3]; rate 600 g ai/ha): 10
- WEED CONTROL RATINGS BL (WEED [3]; rate 600 g ai/ha): 10
- WEED CONTROL RATINGS MV (WEED [3]; rate 600 g ai/ha): 5
- WEED CONTROL RATINGS SP (WEED [3]; rate 600 g ai/ha): 3
- WEED CONTROL RATINGS SJ (WEED [3]; rate 600 g ai/ha): 5

SMILES: CCCOCCN(C(=O)CCl)c1c(CC)cccc1CC [Pretilachlor]
- CROP TOLERANCE DW (Dry weight relative to untreated check) (rice [4]; rate 600 g ai/ha): 71%
- CROP TOLERANCE PH (Plant height relative to untreated check) (rice [4]; rate 600 g ai/ha): 87%
- CROP TOLERANCE VA (Visual crop injury) (rice [4]; rate 600 g ai/ha): 3%

SMILES: CCN(CC)C(=O)SCc1ccc(Cl)cc1 [Thiobencarb, S-[(4-chlorophenyl)methyl]diethylcarbamothioate, reference compound]
- CROP TOLERANCE (Nihonbare) DW, dry weight relative to untreated check [1]: 112%
- CROP TOLERANCE (Nihonbare) PH, plant height relative to untreated check [1]: 102%
- CROP TOLERANCE (Nihonbare) VA, visual crop injury [1]: 0%
- CROP TOLERANCE DW (Dry weight relative to untreated check) (rice [5]): 99%
- CROP TOLERANCE PH (Plant height relative to untreated check) (rice [5]): 99%
- CROP TOLERANCE VA (Visual crop injury) (rice [5]): 0%
- WEED CONTROL RATINGS CD (WEED [2]; rate 2100 g ai/ha): 10
- WEED CONTROL RATINGS CS (WEED [2]; rate 2100 g ai/ha): 2
- WEED CONTROL RATINGS EO (WEED [2]; rate 2100 g ai/ha): 6
- WEED CONTROL RATINGS BL (WEED [2]; rate 2100 g ai/ha): 9.5
- WEED CONTROL RATINGS MV (WEED [2]; rate 2100 g ai/ha): 10
- WEED CONTROL RATINGS SP (WEED [2]; rate 2100 g ai/ha): 0
- WEED CONTROL RATINGS SJ (WEED [2]; rate 2100 g ai/ha): 8.5
- CROP TOLERANCE DW (Dry weight relative to untreated check) (rice [4]; rate 2100 g ai/ha): 81%
- CROP TOLERANCE PH (Plant height relative to untreated check) (rice [4]; rate 2100 g ai/ha): 93%
- CROP TOLERANCE VA (Visual crop injury) (rice [4]; rate 2100 g ai/ha): 2%
- WEED CONTROL RATINGS CD (WEED [3]; rate 2100 g ai/ha): 10
- WEED CONTROL RATINGS CS (WEED [3]; rate 2100 g ai/ha): 9
- WEED CONTROL RATINGS EO (WEED [3]; rate 2100 g ai/ha): 10
- WEED CONTROL RATINGS BL (WEED [3]; rate 2100 g ai/ha): 9
- WEED CONTROL RATINGS MV (WEED [3]; rate 2100 g ai/ha): 10
- WEED CONTROL RATINGS SP (WEED [3]; rate 2100 g ai/ha): 0
- WEED CONTROL RATINGS SJ (WEED [3]; rate 2100 g ai/ha): 7
